This is an account of results in patent US7981598B2, “Preventive/remedy for respiratory diseases” (Takeda Pharmaceutical Company Limited, priority 2004, dated 2011).

SMILES strings stand for the structures.

For experiment [1], the system named is cells containing alveolar macrophages. Briefly: Stimulation with LPS and 25-HC of bronchoalveolar lavage fluid cells from a cigarette smoke-exposed mouse; cytokine mRNA by real-time quantitative PCR. In kind it is cell-based. The settings on record: co-stimulation with LPS (10 ng/ml) and 25-HC (0.3 to 3 μg/ml), 24 hours, compared with LPS alone; FIG. 6. Here is the method:
To examine the involvement of CH25H on the morbid state of COPD, the effect of added 25-hydroxycholesterol (25-HC), i.e. CH25H reaction product, on alveolar macrophages was examined. According to the method described in EXAMPLE 4, a mouse was exposed to cigarette smoke for 4 days, and on the next day of the final exposure, the bronchoalveolar lavage fluid was recovered according to the method described in EXAMPLE 4, and cells containing alveolar macrophages were seeded on a 96-well plate at a density of 1×10^6 cells/ml. On the next day, the cells were stimulated with LPS (10 ng/ml) and 25-HC (0.3 to 3 μg/ml) and cultured for 24 hours. According to the method described in EXAMPLE 1, total RNA was then recovered from the cells according to the attached manual, and the amounts of mRNAs of CXCL2 and IL-1β, that is, inflammatory cytokines, were quantified by the real-time quantitative PCR method. As each probe, the corresponding probe was selected from Assays on demand gene expression product (Applied Biosystems) and used. The expression level of each gene was calculated as relative expression value to rodent GAPDH by the comparative Ct value method.

Experiment [2] has as its system C57BL/6 mice. Briefly: Neutrophil infiltration in bronchoalveolar lavage fluid after intratracheal administration of hydroxylated cholesterols. The settings on record: 50 μg/50 μl/mouse/day for 4 days, lavage on the next day, FIG. 8. The format is in vivo. Here is the method:
To examine whether the airway inflammatory reaction by 25-HC is observed in vivo as well, the effect of 25-HC administered to the lung of a mouse was examined.
25-HC or a control (physiological saline containing a solvent at the same concentration as used in dissolving 25-HC (9.5% aqueous ethanol)), or 4β-hydroxycholesterol (4β-HC), was intratracheally administered for 4 days at a dose of 50 μg/50 μl/mouse/day to C57BL/6 mice (7-week-old, male) under anesthesia with ketamine and xylazine, and on the next day, the bronchoalveolar lavage fluid was recovered, and the number of inflammatory cells was determined.

The test system of experiment [3] is C57BL/6 mice. Briefly: Production of cytokines in bronchoalveolar lavage fluid after intratracheal administration of 25-HC (ELISA). The format is in vivo. The settings on record: 50 μg/50 μl/mouse, 3 hours after administration, vs control, FIG. 7. As for the experimental part:
To examine whether production of cytokines by 25-HC is observed in vivo as well, the effect of 25-HC administered to the lung of a mouse was examined.
25-HC or a control (physiological saline containing a solvent at the same concentration as used in dissolving 25-HC (10% aqueous ethanol)) was intratracheally administered at a dose of 50 μg/50 μl/mouse to C57BL/6 mice (6-week-old, male) under anesthesia with halothane, and 3, 6, 12, 24 and 48 hours after administration, the bronchoalveolar lavage fluid was recovered, and the amounts of KC and MIP-2, that is, inflammatory cytokines in the lavage fluid were measured by a commercial ELISA kit.

As to `C[C@H](CCCC(C)(C)O)[C@H]1CC[C@H]2[C@@H]3CC=C4C[C@@H](O)CC[C@]4(C)[C@H]3CC[C@]12C` [25-HC, 25-hydroxycholesterol], in experiment [1], the “expression of CXCL2 (mRNA, relative to rodent GAPDH)” value is “increased depending on the concentration of 25HC” and the “expression of IL-1β (mRNA, relative to rodent GAPDH)” value was “increased depending on the concentration of 25HC”. Besides, the “neutrophil infiltration (number of neutrophils in bronchoalveolar lavage fluid)” value in the experiment on C57BL/6 mice [2] is given as “significant neutrophil infiltration was recognized”. In the experiment on C57BL/6 mice [3], the “amount of KC in bronchoalveolar lavage fluid” value is on record as “significant increase” and the “amount of MIP-2 in bronchoalveolar lavage fluid” value was “significant increase”.
